According to PubChem BioAssay AID1352 (Sanford-Burnham Center for Chemical Genomics, 2008):
Active and inactive are the calls of the source.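 The calls were made as follows: active = compound at 25 µM lifting cell survival 30% over the thapsigargin-only control at any thapsigargin dose; inactive = the rest.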

Test system: differentiated PC12, thapsigargin-induced death, ATPlite luminescence, 24 h
Experiment: rescue of neuronal PC12 from thapsigargin, SAR follow-up, cell-based, differentiated PC12, rat pheochromocytoma, ATP luminescence (AID 1352)
Settings: at 25 µM, stronger effect = higher value; for survival: measured here: survival

Row | SMILES | survival vs thapsigargin 6.25 uM | survival (thapsigargin 0.25 uM) [%] | survival (thapsigargin 1.25 uM) [%]
1 | CC1(C)CC(=O)C2=C(C1)Nc1ccccc1NC2c1ccc(-c2ccccc2)cc1 (stereo not drawn) | 81% | 76 | 41
2 | CCOc1cccc(C2Nc3ccccc3NC3=C2C(=O)CC(c2ccc(OC)cc2)C3)c1 (stereo not drawn) | 32% (inactive) | 26 | 19
3 | CSc1ccc(C2Nc3ccccc3NC3=C2C(=O)CC(c2ccccc2)C3)cc1 (stereo not drawn) | 30% (inactive) | 22 | 17
4 | COc1ccc(C2CC(=O)C3=C(C2)Nc2ccccc2NC3c2cc(C)ccc2C)cc1 (stereo not drawn) | 38% | 51 | 29
5 | CCCOc1ccc(C2Nc3ccccc3NC3=C2C(=O)CC(c2ccc(OC)c(OC)c2)C3)cc1 (stereo not drawn) | 33% (inactive) | 32 | 22
6 | COc1ccc(C2CC(=O)C3=C(C2)Nc2ccccc2NC3c2cccc(C(F)(F)F)c2)cc1OC (stereo not drawn) | 78% | 44 | 48
7 | O=C1CC(c2ccccc2)CC2=C1C(c1c(F)cccc1Cl)Nc1ccccc1N2 (stereo not drawn) | 39% (inactive) | 38 | 19
8 | COc1ccc(C2CC(=O)C3=C(C2)Nc2ccccc2NC3c2cccc(Br)c2)cc1OC (stereo not drawn) | 54% | 54 | 37
9 | CCOc1cc(C2Nc3ccccc3NC3=C2C(=O)CC(c2ccc(OC)cc2)C3)cc(Cl)c1O (stereo not drawn) | 44% | 59 | 38
10 | COc1ccc(C2CC(=O)C3=C(C2)Nc2ccccc2NC3c2ccccc2C(F)(F)F)cc1OC (stereo not drawn) | 34% (inactive) | 30 | 25
11 | COc1ccc(C2CC(=O)C3=C(C2)Nc2ccccc2NC3c2cccc(Oc3ccccc3)c2)cc1OC (stereo not drawn) | 25% (inactive) | 21 | 16
